In patent publication US5200409A, “Composition and use of substituted 1,3-dithiolo-and 1,4-dithiinoquinoxalines as an antimicrobial” (The Dow Chemical Company, priority 1992, dated 1993):
≈ marks a conversion by molar mass, not a printed value. Read-outs that look alike come from different tables or passages of the source.

Legend:
Escherichia coli (Ec) = experiment: Minimum inhibitory concentration (MIC) in nutrient agar; assay type: cell-based, Escherichia coli ATCC 11229; conditions: 48 h
Method: (§1) The minimum inhibitory concentration (MIC) for the compounds listed in Table I is determined for 9 bacteria, using nutrient agar: and 7 yeast and fungi, using malt yeast agar. A one percent solution of the test compound is prepared in a mixture of acetone and water. Nutrient agar is prepared at pH 6.8, representing a neutral medium, and at pH 8.2, representing an alkaline medium. The nutrient agars are prepared by adding 23 g of nutrient agar to one-liter of deionized water. In addition, the alkaline medium is prepared by adjusting a 0.04M solution of N-[tris-(hydroxymethyl)methyl]-glycine buffered deionized water with concentrated sodium hydroxide to a pH of […]. Malt yeast agar is prepared by adding 3 g yeast extract and 45 g malt agar per liter of deionized water. The specific agar is dispensed in 30 ml aliquots into 25×200 mm test tubes, capped and autoclaved for 15 minutes at 115° C. The test tubes containing the agar are cooled in a water bath until the temperature of the agar is 48° C. Then, an appropriate amount of the one percent solution of the test compound is added (except in the controls where no compound is added) to the respective test tubes so that the final concentrations are 500, 250, 100, 50, 25, 10, 5, 2.5, 1.0 and zero parts per million of the test compound in the agar, thus having a known concentration of test compound dispersed therein. The contents of the test tubes are then transferred to respective petri plates. After drying for 24 hours, the petri plates containing nutrient agar are inoculated with bacteria and those containing malt yeast agar are inoculated with yeast and fungi.
(§2) The inoculation with bacteria is accomplished by using the following procedure. Twenty-four hour-cultures of each of the bacteria are prepared by incubating the respective bacteria in tubes containing nutrient broth for 24 hours at 30° C. in a shaker. Dilutions of each of the 24 hour-cultures are made so that nine separate suspensions (one for each of the nine test bacteria) are made, each containing 10^8 colony forming units (CFU) per ml of suspension of a particular bacteria. Aliquots of 0.3 ml of each of the bacterial suspensions are used to fill the individual wells of Steer's Replicator. For each microbial suspension, 0.3 ml was used to fill three wells (i.e., three wells of 0.3 ml each) so that for the nine different bacteria, 27 wells are filled. The Steer's Replicator is then used to inoculate both the neutral and alkaline pH nutrient agar petri plates.
(§3) The inoculated petri plates are incubated at 30° C. for 48 hours and then read to determine if the test compound which is incorporated into the agar prevented growth of the respective bacteria.
(§4) Table II lists the bacteria, yeast and fungi used in the MIC test described above along with their respective American Type Culture Collection (ATCC) identification numbers.

[1] = system: Pseudomonas aeruginosa (PRD-10); experiment: as above; assay type: cell-based, Pseudomonas aeruginosa ATCC 15442
Method: as §1, §2, §3, §4

[2] = system: Saccharomyces cerevisiae (Sc); experiment: Minimum inhibitory concentration (MIC) in malt yeast agar; assay type: cell-based, Saccharomyces cerevisiae ATCC 4105; conditions: malt yeast agar, 30° C., 48 hours for yeast, read-out: Minimum Inhibitory Concentration, Sc
Method: as §1
(§5) The inoculation with the yeast and fungi is accomplished as follows. Cultures of yeast and fungi are incubated for seven days on malt yeast agar at 30° C. These cultures are used to prepare suspensions by the following procedure. A suspension of each organism is prepared by adding 10 ml of sterile saline and 10 microliters of octylphenoxy polyethoxy ethanol to the agar slant of yeast or fungi. The sterile saline/octylphenoxy polyethoxy ethanol solution is then agitated with a sterile swab to suspend the microorganism grown on the slant. Each resulting suspension is diluted into sterile saline (1 part suspension: 9 parts sterile saline). Aliquots of these dilutions are placed in individual wells of Steer's Replicator and petri plates inoculated as previously described. The petri plates are incubated at 30° C. and read after 48 hours for yeast and 72 hours for fungi.
as §4

Aspergillus niger (An) = experiment: as above; assay type: cell-based, Aspergillus niger ATCC 16404; conditions: malt yeast agar; 30° C.; 72 hours for fungi; read-out: Minimum Inhibitory Concentration, An
Method: as §1, §5, §4

Candida albicans (Ca) = experiment: as above; assay type: cell-based, Candida albicans ATCC 10231; conditions: malt yeast agar; 30° C.; 48 hours for yeast; read-out: Minimum Inhibitory Concentration, Ca
Method: as §1, §5, §4

[3] = system: Enterobacter aerogenes (Ea); experiment: Minimum inhibitory concentration (MIC) in nutrient agar; assay type: cell-based, Enterobacter aerogenes ATCC 13048; conditions: Klebsiella aerogenes
Method: as §1, §2, §3, §4

Trichoderma viride (Tv) = experiment: Minimum inhibitory concentration (MIC) in malt yeast agar; assay type: cell-based, Trichoderma viride ATCC 8678; conditions: malt yeast agar; 30° C.; 72 hours for fungi; read-out: Minimum Inhibitory Concentration, Tv
Method: as §1, §5, §4

Bacillus subtilis (Bs) = experiment: Minimum inhibitory concentration (MIC) in nutrient agar; assay type: cell-based, Bacillus subtilis ATCC 8473
Method: as §1, §2, §3, §4

[4] = system: Staphylococcus aureus (Sa); experiment: as above; assay type: cell-based, Staphylococcus aureus ATCC 6538
Method: as §1, §2, §3, §4

[5] = system: Penicillium chrysogenum (Pc); experiment: Minimum inhibitory concentration (MIC) in malt yeast agar; assay type: cell-based, Penicillium chrysogenum ATCC 9480; conditions: read-out: Minimum Inhibitory Concentration, Pc
Method: as §1, §5, §4

[6] = system: Klebsiella pneumoniae (Kp); experiment: Minimum inhibitory concentration (MIC) in nutrient agar; assay type: cell-based, Klebsiella pneumoniae ATCC 8308
Method: as §1, §2, §3, §4

[7] = system: Salmonella choleraesuis (Sc); experiment: as above; assay type: cell-based, Salmonella choleraesuis ATCC 10708; conditions: Salmonella enterica
Method: as §1, §2, §3, §4

Fusarium oxysporum (Fo) = experiment: Minimum inhibitory concentration (MIC) in malt yeast agar; assay type: cell-based, Fusarium oxysporum ATCC 48112; conditions: malt yeast agar; 30° C.; 72 hours for fungi; read-out: Minimum Inhibitory Concentration, Fo
Method: as §1, §5, §4

Proteus vulgaris (Pv) = experiment: Minimum inhibitory concentration (MIC) in nutrient agar; assay type: cell-based, Proteus vulgaris ATCC 881
Method: as §1, §2, §3, §4

[8] = system: Pseudomonas aeruginosa (Pa); experiment: as above; assay type: cell-based, Pseudomonas aeruginosa ATCC 10145; conditions: 48 hours
Method: as §1, §2, §3, §4

[9] = system: Aureobasidium pullulan (Ap); experiment: Minimum inhibitory concentration (MIC) in malt yeast agar; assay type: cell-based, Aureobasidium pullulan ATCC 16622; conditions: read-out: Minimum Inhibitory Concentration, Ap
Method: as §1, §5, §4

[10] = pH 6.8, read-out: Minimum Inhibitory Concentration, Ec
[11] = pH 8.2, read-out: Minimum Inhibitory Concentration, Ec
[12] = 48 h, pH 8.2, read-out: Minimum Inhibitory Concentration, PRD
[13] = 48 h, pH 8.2, read-out: Minimum Inhibitory Concentration, Ea
[14] = pH 6.8, nutrient agar, 30° C., 48 hours, read-out: Minimum Inhibitory Concentration, Sa
[15] = malt yeast agar, 30° C., 72 hours for fungi
[16] = 48 h, pH 8.2, read-out: Minimum Inhibitory Concentration, Kp
[17] = 48 h, pH 8.2, read-out: Minimum Inhibitory Concentration, Sc
[18] = 48 h, pH 8.2, read-out: Minimum Inhibitory Concentration, Pv
[19] = malt yeast agar, 30° C., 48 hours for yeast and 72 hours for fungi
[20] = 48 h, pH 6.8, read-out: Minimum Inhibitory Concentration, PRD
[21] = 48 h, pH 6.8, read-out: Minimum Inhibitory Concentration, Ea
[22] = 48 h, pH 6.8, read-out: Minimum Inhibitory Concentration, Bs
[23] = 48 h, pH 8.2, read-out: Minimum Inhibitory Concentration, Bs
[24] = 48 h, pH 8.2, read-out: Minimum Inhibitory Concentration, Sa
[25] = pH 6.8, nutrient agar, 30° C., 48 hours, read-out: Minimum Inhibitory Concentration, Kp
[26] = 48 h, pH 6.8, read-out: Minimum Inhibitory Concentration, Sc
[27] = 48 h, pH 6.8, read-out: Minimum Inhibitory Concentration, Pv

SMILES | MIC (Escherichia coli (Ec); [10]) [µg/mL] | MIC (Escherichia coli (Ec); [11]) [µg/mL] | MIC [1, 12] [µg/mL] | MIC [2] [µg/mL] | MIC (Aspergillus niger (An)) [µg/mL] | MIC (Candida albicans (Ca)) [µg/mL] | MIC [3, 13] [µg/mL] | MIC (Trichoderma viride (Tv)) [µg/mL] | MIC [4, 14] [µg/mL] | MIC [5, 15] [µg/mL] | MIC [6, 16] [µg/mL] | MIC [7, 17] [µg/mL] | MIC (Fusarium oxysporum (Fo)) [µg/mL] | MIC (Proteus vulgaris (Pv); [18]) [µg/mL] | MIC ([8]; pH 8.2, 30° C.) [µg/mL] | MIC [9, 19] [µg/mL] | MIC [1, 20] [µg/mL] | MIC [3, 21] [µg/mL] | MIC (Bacillus subtilis (Bs); [22]) [µg/mL] | MIC (Bacillus subtilis (Bs); [23]) [µg/mL] | also measured
N#CC1=C(C#N)Sc2nc3cc(C(F)(F)F)ccc3nc2S1 [K, 7-trifluoromethyl-1,4-dithiino-(2,3-b)-quinoxaline-2,3-dicarbonitrile] | 50 (≈ 149 µM) | > 500 | > 500 | < 10 | 25 (≈ 74.3 µM) | < 10 | > 500 | 25 (≈ 74.3 µM) | 25 (≈ 74.3 µM) | 25 (≈ 74.3 µM) | > 500 | > 500 | 25 (≈ 74.3 µM) | > 500 | > 500 | < 10 |  |  |  |  | MIC ([1]; pH 6.8, nutrient agar, 30° C., 48 hours, read-out: Minimum Inhibitory Concentration, PRD): 250 µg/mL (≈ 743 µM); MIC ([3]; pH 6.8, nutrient agar, 30° C., 48 hours, read-out: Minimum Inhibitory Concentration, Ea): 250 µg/mL (≈ 743 µM); MIC (Bacillus subtilis (Bs); pH 6.8, nutrient agar, 30° C., 48 hours, read-out: Minimum Inhibitory Concentration, Bs): < 10 µg/mL; MIC (Bacillus subtilis (Bs); pH 8.2, nutrient agar, 30° C., 48 hours, read-out: Minimum Inhibitory Concentration, Bs): 100 µg/mL (≈ 297 µM); MIC ([4]; pH 8.2, nutrient agar, 30° C., 48 hours, read-out: Minimum Inhibitory Concentration, Sa): 100 µg/mL (≈ 297 µM); MIC ([6]; 48 h, pH 6.8, read-out: Minimum Inhibitory Concentration, Kp): 50 µg/mL (≈ 149 µM); MIC ([7]; pH 6.8, nutrient agar, 30° C., 48 hours, read-out: Minimum Inhibitory Concentration, Sc): 50 µg/mL (≈ 149 µM); MIC (Proteus vulgaris (Pv); pH 6.8, nutrient agar, 30° C., 48 hours, read-out: Minimum Inhibitory Concentration, Pv): 50 µg/mL (≈ 149 µM)
Cc1ccc2nc3c(nc2c1)SC(=C(C#N)C#N)S3 [N, 6-methyl-1,3-dithiolo-(4,5-b)-quinoxaline-2-ylidene-propanedinitrile] | > 500 | > 500 | > 500 | > 500 | 500 (≈ 1770 µM) | > 500 | > 500 | > 500 | > 500 | 500 (≈ 1770 µM) | > 500 | > 500 | > 500 | > 500 | > 500 | 500 (≈ 1770 µM) | > 500 | > 500 | > 500 | > 500 | MIC [4, 24]: > 500 µg/mL; MIC [6, 25]: > 500 µg/mL; MIC [7, 26]: 500 µg/mL (≈ 1770 µM); MIC (Proteus vulgaris (Pv); [27]): > 500 µg/mL; MIC ([8]; pH 6.8, 30° C.): > 500 µg/mL
N#CC(C#N)=C1Sc2nc3cc(Cl)c([N+](=O)[O-])cc3nc2S1 [Q, 6-chloro-7-nitro-1,3-dithiolo-(4,5-b)-quinoxaline-2-ylidene-propanedinitrile] | > 500 | > 500 | > 500 | 500 (≈ 1440 µM) | 500 (≈ 1440 µM) | 500 (≈ 1440 µM) | > 500 | > 500 | > 500 | 500 (≈ 1440 µM) | > 500 | > 500 | > 500 | > 500 | > 500 |  | > 500 | > 500 | > 500 | > 500 | MIC [4, 24]: > 500 µg/mL; MIC [6, 25]: > 500 µg/mL; MIC [7, 26]: > 500 µg/mL; MIC (Proteus vulgaris (Pv); [27]): > 500 µg/mL; MIC ([8]; pH 6.8, 30° C.): > 500 µg/mL; MIC [9]: 50 µg/mL (≈ 144 µM)
Cc1cc2nc3c(nc2cc1[N+](=O)[O-])SC(=C(C#N)C#N)S3 [R, 6-nitro-7-methyl-1,3-dithiolo-(4,5-b)-quinoxaline-2-ylidene-propanedinitrile] | > 500 | > 500 | > 500 | 500 (≈ 1530 µM) | 100 (≈ 305 µM) | > 500 | > 500 | > 500 | > 500 |  | > 500 | > 500 | > 500 | > 500 | > 500 | 500 (≈ 1530 µM) | > 500 | > 500 | > 500 | > 500 | MIC [4, 24]: > 500 µg/mL; MIC ([5]; 72 h): 50 µg/mL (≈ 153 µM); MIC [6, 25]: > 500 µg/mL; MIC [7, 26]: > 500 µg/mL; MIC (Proteus vulgaris (Pv); [27]): > 500 µg/mL; MIC ([8]; pH 6.8, 30° C.): > 500 µg/mL
N#CC(C#N)=C1Sc2nc3ccc(C(=O)c4ccccc4)cc3nc2S1 [W, 6-benzoyl-1,3-dithiolo-(4,5-b)-quinoxaline-2-ylidene-propanedinitrile] | > 500 | > 500 | > 500 | > 500 | > 500 | > 500 | > 500 | > 500 | > 500 | > 500 | > 500 | > 500 | > 500 | > 500 | > 500 | 500 (≈ 1340 µM) | > 500 | > 500 | > 500 | > 500 | MIC [4, 24]: > 500 µg/mL; MIC [6, 25]: > 500 µg/mL; MIC [7, 26]: > 500 µg/mL; MIC (Proteus vulgaris (Pv); [27]): > 500 µg/mL; MIC ([8]; pH 6.8, 30° C.): > 500 µg/mL
